Source: patent US4303655A, “3,7-Disubstituted-3-cephem-4-carboxylic acid compounds” (Fujisawa Pharmaceutical Co., Ltd., priority 1976, dated 1981)
Converted amounts (≈) assume the structure as drawn.

Each compound was assayed on E. Coli 324 (assay: In vitro antibacterial activity by the two-fold agar-plate dilution method). Settings: Escherichia coli, HI-agar, overnight culture 10^8 viable cells per ml., 37° C. for 20 hours, read-out: MIC (minimal inhibitory concentration).
Type: cell-based
Experimental: In vitro antibacterial activity was determined by the two-fold agar-plate dilution method as described below. One loopful of an overnight culture of each test strain in Trypticase-soy broth (10^8 viable cells per ml.) was streaked on heart infusion agar (HI-agar) containing graded concentrations of antibiotics, and the minimal inhibitory concentration (MIC) was expressed in terms of μg/ml. after incubation at 37° C. for 20 hours.

| MIC [mg/L] | Compound |
| --- | --- |
| 0.05 (≈ 0.104 µM) | Cn1cnnc1SCC1=C(C(=O)O)N2C(=O)C(NC(=O)C(=O)c3csc(N)n3)C2SC1 (centres unmarked) [(5)] |
| 0.05 (≈ 0.104 µM) | Cn1nnnc1SCC1=C(C(=O)O)N2C(=O)C(NC(=O)C(=O)c3csc(N)n3)C2SC1 (centres unmarked) [(1)] |
| 0.05 (≈ 0.1 µM) | Cc1nnc(SCC2=C(C(=O)O)N3C(=O)C(NC(=O)C(=O)c4csc(N)n4)C3SC2)s1 (centres unmarked) [(3)] |

Further lines, the compound ahead of its results:

| Compound | MIC [mg/L] |
| --- | --- |
| Cc1nnc(SCC2=C(C(=O)O)N3C(=O)C(NC(=O)C(=O)c4csc(N)n4)C3SC2)o1 (centres unmarked) [(4)] | 0.05 (≈ 0.104 µM) |
| Nc1nc(C(=O)C(=O)NC2C(=O)N3C(C(=O)O)=C(CSc4nncs4)CSC23)cs1 (centres unmarked) [(2)] | 0.05 (≈ 0.103 µM) |
